{"source": "patent US20250332160A1", "about": "“COMPOSITION CONTAINING ARIPIPRAZOLE AS ACTIVE INGREDIENT FOR ENHANCING ANTICANCER EFFECT OF ERK INHIBITOR” (KOREA INSTITUTE OF RADIOLOGICAL & MEDICAL SCIENCES, priority 2022, published 2025)", "key": {"[1]": {"system": "PUMA", "assay": "Expression of PUMA protein in COLO 205 cells, Western blot", "assay_type": "cell-based", "details": "eight hours after treatment, Western blot (FIG. 1)", "experimental": "(§1) To identify an effect of aripiprazole on the expression of NOXA and PUMA proteins in cancer cells, COLO 205 cells were treated with aripiprazole. Eight hours later, proteins were extracted from cells after washing with PBS, and a level of NOXA and PUMA expression was checked via Western blot."}, "[2]": {"system": "NOXA", "assay": "Expression of NOXA protein in COLO 205 cells, Western blot", "assay_type": "cell-based", "details": "eight hours after treatment, Western blot (FIG. 1)", "experimental": "as §1"}}}
{"smiles": "O=C1CCc2ccc(OCCCCN3CCN(c4cccc(Cl)c4Cl)CC3)cc2N1", "note": "[aripiprazole]", "values": [{"measurement": "expression of PUMA protein", "setting": "[1]", "value": "increased"}, {"measurement": "expression of NOXA protein", "setting": "[2]", "value": "increased"}]}
